Molecular target: T1, Purine nucleoside phosphorylase (Homo sapiens, UniProt P00491)
T1 sequence (P00491 whole entry): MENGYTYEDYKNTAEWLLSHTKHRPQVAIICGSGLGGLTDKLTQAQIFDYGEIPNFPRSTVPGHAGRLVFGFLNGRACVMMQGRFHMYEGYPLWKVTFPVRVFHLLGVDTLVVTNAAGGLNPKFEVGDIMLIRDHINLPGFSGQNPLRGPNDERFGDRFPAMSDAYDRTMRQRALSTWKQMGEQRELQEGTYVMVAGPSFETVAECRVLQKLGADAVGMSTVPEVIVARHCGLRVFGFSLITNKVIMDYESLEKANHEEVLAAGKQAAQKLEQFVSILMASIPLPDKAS
Description: Inhibition of human PNP by xanthine-oxidase coupled assay

SMILES: Nc1nc2c(CNC(CO)CO)c[nH]c2c(=O)[nH]1
- Ki: 2.1 pM

SMILES: Nc1nc2c(CN[C@H](CO)[C@H](O)CO)c[nH]c2c(=O)[nH]1
- Ki: 3.4 pM

SMILES: O=c1[nH]cnc2c(CN3C[C@H](CO)[C@@H](O)C3)c[nH]c12 [ULODESINE]
- Ki: 8.5 pM

From ChEMBL document CHEMBL1140943, “Third-generation immucillins: syntheses and bioactivities of acyclic immucillin inhibitors of human purine nucleoside phosphorylase” (J Med Chem, 2009)
